Columns and labels:
Assay type in all cases: physicochemical
[1] = Film formation of sprayed in situ polymerizable collagen on skin or skin wounds; conditions: EGF 5,000-20,000 IU/mL
Method: The sprayable in situ polymerizable collagen was prepared by mix in situ polymerizable collagen prepared in Example 1 with PBS at volume ratio of 2:1. After mixing by stirring at 50 rpm for 10 min, the gel was centrifuge to remove the bubbles. The sprayable in situ polymerizable collagen was less viscous with better flowability and placed in a spray bottle and still remained transparent under room temperature. […] The in situ polymerizable collagen solution with EGF was sprayed to skin wounds through spray bottle and formed a film to cover the wound within 120 sec, providing a wet healing environment and continuous EGF delivery to accelerate skin healing or improve skin condition.

[2] = In vitro release of latanoprost from in situ polymerizable collagen gels into physiological saline (HPLC)
Method: Latanoprost (13,14-dihydro-17-phenyl-18,19,20-trinor-prostaglandin F2a-1-isopropyl ester) was obtained from Sigma-Aldrich. Soluble, pepsin digested, bovine collagen for drug delivery formulations was purchased from Advanced Biomatrix. In situ polymerizable collagen was prepared according to Example 1 by extensive dialysis of salt precipitated collagen against 0.035M EDTA with step-wise increase in pH to 7.5. Latanoprost was dissolved in 95% ethanol and added to polymerizable collagen solution to provide gel depots containing 250 μg latanoprost/100 μL collagen. The solutions were incubated in 1.0 mL of physiological saline at 37° C. The entire 1.0 mL volume was removed at time periods ranging from 1 day to 174 days and replaced with 1.0 mL of fresh saline. Latanoprost concentration in saline aliquots was measured by HPLC analysis (Millennium Research Laboratories).
In situ polymerizable collagen gels provided sustained in vitro release of Latanoprost for more than 30 days.

[3] = In vitro release of Compstatin from in situ polymerizable collagen
Method: Delivery of a complement peptide-Compstatin from in situ polymerizable collagen prepared according to Example 1 was studied in vitro. In vitro release was measured for 6 weeks to ascertain the optimum collagen formulation.

[4] = Short-term controlled release of lidocaine from collagen gel into 0.9% NaCl (HPLC); conditions: gel in 0.9% NaCl, 37° C., 80 RPM; FIG. 6
Method: One third of the same volume of collagen solution of a lidocaine sterile solution (0.9% Lidocaine, 7% Mannitol, 80 mM EDTA-2Na, 0.05M Na2CO3 and 0.05M NaHCO3) was added to collagen. 2 mL final mixed collagen solution was incubated under 37° C. to form a gel and put into 20 mL 37° C. 0.9% NaCl solution with a stir bar stirring at 80 RPM. At 10 min, 20 min, 30 min, 60 min, 90 min, and 120 min, 2 mL NaCl solution was collected to test lidocaine concentration and additional 2 mL 0.9% NaCl solution was replenished. HPLC method was used to measured lidocaine concentration and calculated to the percentage release of the lidocaine in collagen gel.

[5] = In vitro polymerization test of collagen/antibiotic compositions injected into WFI; conditions: 27-gauge needle
Method: 50 mg lyophilized and powdered (by mortar and pestle) Voriconazole was mixed with 200 μL of in situ polymerizable collagen solution prepared according to Example 1 by passing the powder into the collagen solution using two syringes attached with a female-female adaptor. The mixture appeared clear and transparent (FIG. 4A). Aliquots were injected into water for injection (WFI) using a 27-gauge needle. A control sample composed of in situ polymerizable collagen solution only was also injected into WFI.
Two other antibiotics, Cefuroxime and Vigamox, were mixed to in situ polymerizable collagen using the same method used for adding Voriconazole to the collagen to form a collagen/antibiotic composition, respectively. […] The appearance of the mixture depends on the solubility of the antibiotics.

Compound: EGF: Epidermal Growth Factor lyophilized powder dissolved in in situ polymerizable collagen solution, 5,000-20,000 IU/mL
- time to form a film covering the wound [1]: ≤ 120 s

Compound: CC(C)OC(=O)CCC/C=C\C[C@@H]1[C@@H](CC[C@@H](O)CCc2ccccc2)[C@H](O)C[C@@H]1O [Latanoprost, 13,14-dihydro-17-phenyl-18,19,20-trinor-prostaglandin F2a-1-isopropyl ester]
- duration of sustained in vitro release of Latanoprost ([2]; in situ polymerizable collagen gels, saline 37° C.): more than 30 days
- initial release of Latanoprost ([2]; polymerizable gels added directly to saline solution): large initial release
- sustained release of Latanoprost, average ([2]; polymerizable gels added directly to saline solution, 250 μg latanoprost/100 μL collagen, 37° C.): 0.54 µg/day
- initial release of Latanoprost ([2]; polymerizable gels partially pre-polymerized): reduced initial release
- average sustained release rate of Latanoprost ([2]; polymerizable gels partially pre-polymerized before placing in solution, 250 μg latanoprost/100 μL collagen, 37° C.): 1.4 µg/day

Compound: CC[C@H](C)[C@H](N)C(=O)N[C@H]1CSSC[C@@H](C(=O)N[C@H](C(N)=O)[C@@H](C)O)NC(=O)[C@H](CCCN=C(N)N)NC(=O)[C@H](Cc2cnc[nH]2)NC(=O)[C@H](Cc2cnc[nH]2)NC(=O)CNC(=O)[C@H](Cc2c[nH]c3ccccc23)NC(=O)[C@H](CC(=O)O)NC(=O)[C@H](CCC(N)=O)NC(=O)[C@H](C(C)C)NC(=O)[C@H](C(C)C)NC1=O [Compstatin]
- duration of initial burst [3]: 4 days
- duration of sustained release [3]: 6 weeks
- release kinetics ([3]; measured for 6 weeks): bi-phasic release kinetics

Compound: CCN(CC)CC(=O)Nc1c(C)cccc1C [lidocaine]
- controlled release of lidocaine [4]: within two hours

Compound: CO/N=C(\C(=O)N[C@@H]1C(=O)N2C(C(=O)O)=C(COC(N)=O)CS[C@H]12)c1ccco1 [Cefuroxime]
- collagen fibril formation [5]: do not blocking the fibril formation

— patent US20250213697A1, “INJECTABLE AND/OR SPRAYABLE, IN SITU POLYMERIZABLE COLLAGEN COMPOSITIONS FOR SUSTAINED DELIVERY OF THERAPEUTICS” (priority 2023, published 2025)
